Experimental data from US20250066328A1, “PARP7 INHIBITORS” (Gilead Sciences, Inc., priority 2023, published 2025).

system: STAT1 (phosphorylated at Tyr701) in NCI-H1373 cells; assay: Phospho-STAT1 (Tyr701) LANCE Ultra TR-FRET detection assay in NCI-H1373 cells; format: cell-based; settings: Homo sapiens, NCI-H1373, 48 h, 48 hours incubation, induction of pSTAT1, normalized to 10 uM positive control and DMSO, 4-parameter fit, read-out: NH1373 pSTAT1 EC50
Protocol: Phospho-STAT1 (Tyr701 LANCE Ultra TR-FRET Detection Assay
LANCE Ultra phospho-STAT1 (Tyr701) kits are designed for the detection of phosphorylated STAT1 in cell lysates using a simple, homogeneous LANCE Ultra sandwich assay (Cat. #TRF4028M). This assay is intended for assessing compound induction of endogenous levels of cellular STAT1 (phosphorylated at Tyr701) in NCI-H1373 cells. The NCI-H1373 cells are cultured in RPMI 1640 media containing 10% heat inactivated FBS, GlutaMAX, 1% Penicillin-Streptomycin. An Echo acoustic liquid handler is used to transfer 60 nanoliters of compound dilutions using the Echo Qualified, 384-well polypropylene microplate clear flat bottom source plates into a Greiner (#781080) cell culture microplate. NCI-H1373 cells are seeded into these compound-spotted culture plates at 30,000 cells/well in a 60 uL volume in growth media. The plates are incubated in a 5% CO2 humidified incubator at 37° C. for 48 hours. […] Briefly, […] of supplemented lysis buffer is added to each well and allowed to shake for 1 hour at 400 rpm. Next, 5 ul of remixed antibody solutions (vol/vol) prepared in detection buffer are added to each well and allowed to incubate at room temperature overnight. After spinning the plate down at 300 rpm for 1 min, the plate is read on an EnVision plate reader set up for Eu^3+ Cryptate and fluorescence emission is measured at two different wavelengths (665 nm and 620 nm). The HTRF ratio is then calculated ([…]) for each well to determine the amount of pSTAT1 in the cell lysate, and the data is then normalized to 10 uM (S)-5-((1-(3-oxo-3-(4-(5-(trifluoromethyl)pyrimidin-2-yl)piperazin-1-yl)propoxy)propan-2-yl)amino)-4-(trifluoromethyl)pyridazin-3(2H)-one positive and DMSO negative controls. The values were then plotted as a function of compound concentration and a 4-parameter fit was applied to derive the EC50 values.

| Structure (SMILES) | EC50 [nM] |
| --- | --- |
| C[C@@H](CC(F)Cn1cnc2cc(-c3ncc(C(F)(F)F)cn3)c(F)cc2c1=O)Oc1cn[nH]c(=O)c1C(F)(F)F (stereo partly shown) [Example 36] | 10.8 |
| O=c1[nH]ncc(NC(COC(F)F)CC(F)Cn2ccc3cc(-c4ncc(C(F)F)cn4)c(F)cc3c2=O)c1C(F)(F)F (stereo not shown) [Example 130] | 2.24 |
| C[C@@H](C[C@@H](O)Cn1ccc2cc(-c3ncc(C(F)F)cn3)c(F)cc2c1=O)Oc1cn[nH]c(=O)c1C(F)(F)F (single isomer, unassigned) [Example 19] | 1.28 |
| COc1cnc(-c2cc3ccn(CC(F)CC(COC(F)F)Nc4cn[nH]c(=O)c4C(F)(F)F)c(=O)c3cc2F)nc1 (stereo not shown) [Example 128] | 3.08 |
| C[C@@H](C[C@@H](F)Cn1ccc2cc(-c3ncc(C(F)F)cn3)c(F)c(F)c2c1=O)Nc1cn[nH]c(=O)c1C(F)(F)F [Example 100] | 1.05 |
| COc1cnc(-c2cc3ccn(C[C@@H](F)C[C@H](C)Oc4cn[nH]c(=O)c4C(F)(F)F)c(=O)c3cc2F)nc1N [Example 59] | 1.21 |
| COc1cnc(-c2cc3ccn(C[C@H](F)C[C@H](C)Nc4cn[nH]c(=O)c4C(F)(F)F)c(=O)c3c(F)c2F)nc1 [Example 99] | 1.06 |
| C[C@@H](C[C@@H](F)Cn1ccc2cc(-c3ncc4c(n3)COC4(C)C)c(F)cc2c1=O)Nc1cn[nH]c(=O)c1C(F)(F)F [Example 90] | 4.33 |
| C[C@@H](C[C@@H](F)Cn1ccc2cc(-c3ncc(C(C)(C)C)cn3)c(F)cc2c1=O)Nc1cn[nH]c(=O)c1C(F)(F)F [Example 88] | 1.29 |
| C[C@@H](C[C@@H](F)Cn1ccc2cc(-c3ncc(OCC#N)cn3)c(F)cc2c1=O)Nc1cn[nH]c(=O)c1C(F)(F)F [Example 78] | 192 |
| C[C@@H](C[C@@H](F)Cn1ccc2cc(-c3cc[nH]n3)c(F)cc2c1=O)Nc1cn[nH]c(=O)c1C(F)(F)F [Example 73] | 136 |
| C[C@@H](C[C@@H](F)Cn1ccc2cc(-c3ncc(C(O)C(F)(F)F)cn3)c(F)cc2c1=O)Nc1cn[nH]c(=O)c1C(F)(F)F (stereo partly shown) [Example 79] | 5.05 |
| CC(F)(F)c1cnc(-c2cc3ccn(CC(F)CC(COC(F)F)Nc4cn[nH]c(=O)c4C(F)(F)F)c(=O)c3cc2F)nc1 (stereo not shown) [Example 131] | 5.34 |
| C[C@@H](C[C@H](F)Cn1ccc2cc(-c3ncc(C(F)F)cn3)c(F)cc2c1=O)Nc1cn[nH]c(=O)c1C(F)(F)F (single isomer, unassigned) [Example 5] | 47.6 |
| CC(C)(O)c1cnc(-c2cc3ccn(CCC[C@H](COC(F)F)Oc4cn[nH]c(=O)c4C(F)(F)F)c(=O)c3cc2F)nc1 (single isomer, unassigned) [Example 35] | 20.5 |
| C[C@@H](C[C@@H](F)Cn1ccc2cc(-c3ncc(C(C)(C)O)cn3)c(F)cc2c1=O)Oc1cn[nH]c(=O)c1C(F)(F)F (single isomer, unassigned) [Example 51] | 3.28 |
| C[C@@H](C[C@H](F)Cn1cc(F)c2cc(-c3ncc(C(C)(C)O)cn3)c(F)cc2c1=O)Oc1cn[nH]c(=O)c1C(F)(F)F [Example 66] | 91.6 |
| COc1cnc(-c2cc3c(F)cn(C[C@H](F)C[C@H](C)Nc4cn[nH]c(=O)c4C(F)(F)F)c(=O)c3cc2F)nc1 [Example 25] | 1.01 |
| C[C@@H](C[C@@H](F)Cn1ccc2cc(-c3ncc(Cl)cn3)c(F)c(F)c2c1=O)Oc1cn[nH]c(=O)c1C(F)(F)F (single isomer, unassigned) [Example 43] | 0.62 |

| Structure (SMILES) | EC50 [nM] |
| --- | --- |
| C[C@@H](C[C@@H](F)Cn1ccc2cc(-c3ncc(C(F)F)cn3)c(F)cc2c1=O)Nc1cn[nH]c(=O)c1C(F)(F)F (single isomer, unassigned) [Example 4] | 1.08 |
| C[C@@H](C[C@@H](F)Cn1cc(Br)c2cc(-c3ncc(C(C)(C)O)cn3)c(F)cc2c1=O)Oc1cn[nH]c(=O)c1C(F)(F)F [Example 68, 4-bromo-7-fluoro-2-((2R,4S)-2-fluoro-4-((6-oxo-5-(trifluoromethyl)-1,6-dihydropyridazin-4-yl)oxy)pentyl)-6-(5-(2-hydroxypropan-2-yl)pyrimidin-2-yl)isoquinolin-1(2H)-one] | 3.7 |
| C[C@@H](C[C@@H](F)Cn1cnc2cc(-c3ncc(C(F)(F)F)cn3)c(F)cc2c1=O)Oc1cn[nH]c(=O)c1C(F)(F)F [Example 39] | 1.49 |
| C[C@@H](C[C@H](F)Cn1cc(F)c2cc(-c3ncc(C(F)F)c(N)n3)c(F)cc2c1=O)Oc1cn[nH]c(=O)c1C(F)(F)F [Example 64] | 0.42 |
| C[C@@H](C[C@@H](F)Cn1ccc2cc(-c3ncc(C(F)(F)CO)cn3)c(F)cc2c1=O)Nc1cn[nH]c(=O)c1C(F)(F)F [Example 85] | 4.39 |
| C[C@@H](C[C@@H](F)Cn1cc(F)c2cc(-c3ncc(C(F)(F)F)cn3)c(F)cc2c1=O)Oc1cn[nH]c(=O)c1C(F)(F)F [Example 55] | 135 |
| O=c1[nH]ncc(O[C@H](CCCn2ccc3cc(-c4ncc(C(F)(F)F)cn4)c(F)cc3c2=O)COC(F)F)c1C(F)(F)F (single isomer, unassigned) [Example 119] | 16.1 |
| C[C@@H](C[C@H](F)Cn1cnc2cc(-c3ncc(C(F)(F)F)cn3)c(F)cc2c1=O)Oc1cn[nH]c(=O)c1C(F)(F)F [Example 58] | 35.3 |
| C[C@@H](CC(O)Cn1ccc2cc(-c3nc4ccccn4n3)c(F)cc2c1=O)Nc1cn[nH]c(=O)c1C(F)(F)F (stereo partly drawn) [Example 21, 6-([1,2,4]triazolo[1,5-a]pyridin-2-yl)-7-fluoro-2-((4S)-2-hydroxy-4-((6-oxo-5-(trifluoromethyl)-1,6-dihydropyridazin-4-yl)amino)pentyl)isoquinolin-1(2H)-one] | 13.3 |
| CC(C)(O)c1cnc(-c2cc3ccn(CCC[C@@H](COC(F)F)Oc4cn[nH]c(=O)c4C(F)(F)F)c(=O)c3cc2F)nc1 (single isomer, unassigned) [Example 34] | 10000 |
| C[C@@H](C[C@H](F)Cn1ccc2cc(-c3ncc(C(F)(F)F)cn3)c(F)cc2c1=O)Oc1cn[nH]c(=O)c1C(F)(F)F [Example 13] | 1.32 |
| COC(C[C@H](C)Nc1cn[nH]c(=O)c1C(F)(F)F)Cn1ccc2cc(-c3ncc(C(F)(F)F)cn3)c(F)cc2c1=O (stereo partly drawn) [Example 10, 7-fluoro-2-((4S)-2-methoxy-4-((6-oxo-5-(trifluoromethyl)-1,6-dihydropyridazin-4-yl)amino)pentyl)-6-(5-(trifluoromethyl)pyrimidin-2-yl)isoquinolin-1(2H)-one] | 30.8 |
| C[C@@H](C[C@@H](F)Cn1ccc2cc(-c3ncc(C(F)F)cn3)c(F)c(F)c2c1=O)Oc1cn[nH]c(=O)c1C(F)(F)F [Example 50] | 0.46 |
| C[C@@H](C[C@H](F)Cn1ccc2cc(-c3ncc(C(F)F)c(N)n3)c(F)cc2c1=O)Oc1cn[nH]c(=O)c1C(F)(F)F (single isomer, unassigned) [Example 15] | 0.786 |
| C[C@@H](C[C@@H](F)Cn1cc(F)c2cc(-c3ncc(C(F)F)cn3)c(F)cc2c1=O)Nc1cn[nH]c(=O)c1C(F)(F)F [Example 29] | 1.86 |
| C[C@@H](CC(O)Cn1ccc2cc(-c3ncc(C(F)(F)F)cn3)c(F)cc2c1=O)Oc1cn[nH]c(=O)c1C(F)(F)F (stereo partly shown) [Example 16] | 1.12 |
| C[C@@H](C[C@@H](F)Cn1ccc2cc(-c3ncc(C(F)F)c(N)n3)c(F)c(F)c2c1=O)Oc1cn[nH]c(=O)c1C(F)(F)F [Example 42] | 0.836 |
| C[C@@H](C[C@@H](F)Cn1cc(F)c2cc(-c3ncc(C(F)F)c(N)n3)c(F)cc2c1=O)Oc1cn[nH]c(=O)c1C(F)(F)F [Example 54] | 23.7 |
